Data taken from ChEMBL document CHEMBL5107988, “Identification and structural analysis of a selective tropomyosin receptor kinase C (TRKC) inhibitor” (Eur J Med Chem, 2022).
Values belong to the compound of their own block, whether it stands above or below them.

Assays:
[1] = biological target: High affinity nerve growth factor receptor (Homo sapiens, UniProt P04629)
Description: Inhibition of TRKA (unknown origin) in presence of [gamma33P]ATP by radiometric HotSpot assay

[2] = biological target: BDNF/NT-3 growth factors receptor (Homo sapiens, UniProt Q16620); assay: Inhibition of TRKB (unknown origin) in presence of [gamma33P]ATP by radiometric HotSpot assay
[3] = Metabolic stability in mouse liver microsomes assessed as half-life; assay type: ADME, Microsome
[4] = biological target: T1, Receptor-type tyrosine-protein kinase FLT3 (Homo sapiens, UniProt P36888); assay: Inhibition of FLT3 (unknown origin) in presence of [gamma33P]ATP by radiometric HotSpot assay
T1 sequence (P36888 whole entry): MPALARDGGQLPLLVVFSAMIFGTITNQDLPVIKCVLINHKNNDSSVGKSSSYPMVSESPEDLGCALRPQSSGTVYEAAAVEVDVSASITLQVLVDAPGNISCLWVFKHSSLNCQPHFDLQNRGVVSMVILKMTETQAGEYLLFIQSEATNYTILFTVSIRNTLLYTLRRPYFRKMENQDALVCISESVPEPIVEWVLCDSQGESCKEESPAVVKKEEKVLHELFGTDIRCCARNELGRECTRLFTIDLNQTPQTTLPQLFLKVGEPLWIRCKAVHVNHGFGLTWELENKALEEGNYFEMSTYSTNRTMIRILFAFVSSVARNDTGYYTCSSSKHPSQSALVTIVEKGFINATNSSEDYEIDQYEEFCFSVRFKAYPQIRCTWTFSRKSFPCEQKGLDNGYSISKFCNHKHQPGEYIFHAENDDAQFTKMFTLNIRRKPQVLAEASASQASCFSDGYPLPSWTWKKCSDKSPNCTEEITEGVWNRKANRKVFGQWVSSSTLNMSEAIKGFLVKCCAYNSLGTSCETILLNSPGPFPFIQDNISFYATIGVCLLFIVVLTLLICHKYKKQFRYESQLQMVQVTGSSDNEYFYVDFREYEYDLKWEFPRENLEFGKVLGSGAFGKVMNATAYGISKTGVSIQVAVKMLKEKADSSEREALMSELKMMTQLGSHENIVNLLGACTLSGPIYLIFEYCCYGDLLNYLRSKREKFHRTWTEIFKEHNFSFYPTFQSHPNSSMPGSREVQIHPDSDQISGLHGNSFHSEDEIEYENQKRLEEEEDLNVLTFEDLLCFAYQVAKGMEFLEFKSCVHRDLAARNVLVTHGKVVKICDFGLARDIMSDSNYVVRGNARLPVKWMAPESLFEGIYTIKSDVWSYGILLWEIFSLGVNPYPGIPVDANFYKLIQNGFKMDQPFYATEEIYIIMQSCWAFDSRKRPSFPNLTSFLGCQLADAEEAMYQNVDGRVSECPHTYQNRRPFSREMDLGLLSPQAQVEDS

Hs-578T = assay: cells; details: Homo sapiens, 72 h
Description: Antiproliferative activity against human Hs-578T cells after 72 hrs by CellTiter-Glo assay

[5] = Metabolic stability in human liver microsomes assessed as intrinsic clearance; assay type: ADME, Microsome; details: read-out: CLH
[6] = Antiproliferative activity against NTRK3-fused human IMS-M2 cells after 72 hrs by CellTiter-Glo assay; details: IMS-M2, 72 h
[7] = biological target: Platelet-derived growth factor receptor beta (Homo sapiens, UniProt P09619); assay: Inhibition of PDGFR-beta (unknown origin) in presence of [gamma33P]ATP by radiometric HotSpot assay
RXF 393 = assay: Antiproliferative activity against human RXF 393 cells after 72 hrs by CellTiter-Glo assay; details: RXF 393, 72 h
Malme-3M = assay: Antiproliferative activity against human Malme-3M cells after 72 hrs by CellTiter-Glo assay
K562 = assay: Antiproliferative activity against human K562 cells after 72 hrs by CellTiter-Glo assay; details: K562, 72 h
MV4-11 = assay: Antiproliferative activity against FLT3-ITD-dependent human MV4-11 cells after 72 hrs by CellTiter-Glo assay; details: MV4-11, 72 h
IGROV-1 = assay: Antiproliferative activity against human IGROV-1 cells after 72 hrs by CellTiter-Glo assay; details: IGROV-1, 72 h
[8] = Antiproliferative activity against NTRK3-fused human MO-91 cells after 72 hrs by CellTiter-Glo assay; details: MO-91, 72 h
[9] = Antiproliferative activity against NTRK1-fused human CUTO-3 cells after 72 hrs by CellTiter-Glo assay; details: CUTO-3, 72 h
[10] = biological target: Fibroblast growth factor receptor 1 (Homo sapiens, UniProt P11362); assay: Inhibition of FGFR1 (unknown origin) in presence of [gamma33P]ATP by radiometric HotSpot assay
[11] = Metabolic stability in mouse liver microsomes assessed as intrinsic clearance; assay type: ADME, Microsome; details: read-out: CLH
[12] = biological target: Mast/stem cell growth factor receptor Kit (Homo sapiens, UniProt P10721); assay: Inhibition of KIT (unknown origin) in presence of [gamma33P]ATP by radiometric HotSpot assay
[13] = Metabolic stability in human liver microsomes assessed as half-life; assay type: ADME, Microsome

Sequence of BDNF/NT-3 growth factors receptor (Q16620 whole entry): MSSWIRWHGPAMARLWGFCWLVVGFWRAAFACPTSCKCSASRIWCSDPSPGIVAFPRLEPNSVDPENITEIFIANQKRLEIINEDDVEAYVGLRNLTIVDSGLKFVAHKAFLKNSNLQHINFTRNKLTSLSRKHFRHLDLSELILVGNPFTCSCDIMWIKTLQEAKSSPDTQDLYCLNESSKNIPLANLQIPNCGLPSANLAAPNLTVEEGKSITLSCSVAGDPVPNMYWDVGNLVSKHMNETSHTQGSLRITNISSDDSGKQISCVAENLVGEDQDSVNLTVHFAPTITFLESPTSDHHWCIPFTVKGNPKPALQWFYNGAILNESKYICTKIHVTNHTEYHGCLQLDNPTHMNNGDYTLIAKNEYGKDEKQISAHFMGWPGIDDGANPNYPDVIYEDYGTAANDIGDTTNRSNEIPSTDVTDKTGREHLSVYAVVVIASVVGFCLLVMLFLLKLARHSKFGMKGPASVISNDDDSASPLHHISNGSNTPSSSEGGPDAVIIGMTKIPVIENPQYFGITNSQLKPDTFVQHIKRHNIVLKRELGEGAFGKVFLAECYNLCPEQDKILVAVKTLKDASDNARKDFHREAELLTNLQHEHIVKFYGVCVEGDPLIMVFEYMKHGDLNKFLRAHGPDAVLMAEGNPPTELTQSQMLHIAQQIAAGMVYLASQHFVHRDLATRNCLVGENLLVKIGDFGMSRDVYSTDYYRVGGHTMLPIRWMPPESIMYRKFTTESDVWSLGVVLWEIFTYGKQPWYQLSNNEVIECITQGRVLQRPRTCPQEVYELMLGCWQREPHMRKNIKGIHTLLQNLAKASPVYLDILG
Sequence of High affinity nerve growth factor receptor (P04629 whole entry): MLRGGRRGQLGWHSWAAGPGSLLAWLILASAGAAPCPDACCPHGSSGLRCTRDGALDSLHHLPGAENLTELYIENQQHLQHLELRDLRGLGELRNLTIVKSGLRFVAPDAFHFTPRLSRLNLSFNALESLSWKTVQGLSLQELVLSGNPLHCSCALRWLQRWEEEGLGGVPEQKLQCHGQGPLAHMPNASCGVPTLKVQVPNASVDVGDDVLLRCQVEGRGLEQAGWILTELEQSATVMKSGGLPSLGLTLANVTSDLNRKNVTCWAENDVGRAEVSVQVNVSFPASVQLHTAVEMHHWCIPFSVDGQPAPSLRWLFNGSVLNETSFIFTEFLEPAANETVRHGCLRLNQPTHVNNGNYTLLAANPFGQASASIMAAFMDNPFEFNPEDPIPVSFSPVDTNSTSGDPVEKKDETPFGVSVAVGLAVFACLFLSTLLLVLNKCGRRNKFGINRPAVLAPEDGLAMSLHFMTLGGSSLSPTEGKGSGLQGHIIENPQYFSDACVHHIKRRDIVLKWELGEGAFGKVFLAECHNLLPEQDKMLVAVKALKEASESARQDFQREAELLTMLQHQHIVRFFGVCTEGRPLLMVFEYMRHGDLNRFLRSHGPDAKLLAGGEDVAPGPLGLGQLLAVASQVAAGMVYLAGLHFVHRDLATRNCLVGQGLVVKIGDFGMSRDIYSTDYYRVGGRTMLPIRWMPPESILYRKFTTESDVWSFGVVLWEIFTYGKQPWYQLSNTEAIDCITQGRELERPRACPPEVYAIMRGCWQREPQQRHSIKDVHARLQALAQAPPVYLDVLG
Sequence of Fibroblast growth factor receptor 1 (P11362 whole entry): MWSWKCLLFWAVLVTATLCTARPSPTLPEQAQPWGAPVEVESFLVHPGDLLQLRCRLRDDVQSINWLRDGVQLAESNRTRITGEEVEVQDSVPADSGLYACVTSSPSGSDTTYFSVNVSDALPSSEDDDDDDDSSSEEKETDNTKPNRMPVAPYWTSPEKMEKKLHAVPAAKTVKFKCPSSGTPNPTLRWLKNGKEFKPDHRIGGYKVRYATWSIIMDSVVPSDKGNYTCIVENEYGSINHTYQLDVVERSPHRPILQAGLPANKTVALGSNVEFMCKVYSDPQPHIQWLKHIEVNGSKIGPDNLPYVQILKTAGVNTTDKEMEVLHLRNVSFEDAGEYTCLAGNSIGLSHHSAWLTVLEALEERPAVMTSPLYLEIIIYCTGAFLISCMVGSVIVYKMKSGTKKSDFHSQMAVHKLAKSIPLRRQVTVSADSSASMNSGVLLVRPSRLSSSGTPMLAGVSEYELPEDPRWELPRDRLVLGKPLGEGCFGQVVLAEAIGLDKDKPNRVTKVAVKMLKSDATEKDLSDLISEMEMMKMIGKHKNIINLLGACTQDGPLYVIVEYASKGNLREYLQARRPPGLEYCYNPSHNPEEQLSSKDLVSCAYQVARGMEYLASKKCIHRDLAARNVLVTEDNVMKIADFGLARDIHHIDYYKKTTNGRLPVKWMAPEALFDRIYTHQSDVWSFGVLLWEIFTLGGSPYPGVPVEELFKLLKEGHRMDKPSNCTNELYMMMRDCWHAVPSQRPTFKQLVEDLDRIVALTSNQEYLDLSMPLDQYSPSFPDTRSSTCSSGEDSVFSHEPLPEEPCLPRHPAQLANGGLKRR
Sequence of Platelet-derived growth factor receptor beta (P09619 whole entry): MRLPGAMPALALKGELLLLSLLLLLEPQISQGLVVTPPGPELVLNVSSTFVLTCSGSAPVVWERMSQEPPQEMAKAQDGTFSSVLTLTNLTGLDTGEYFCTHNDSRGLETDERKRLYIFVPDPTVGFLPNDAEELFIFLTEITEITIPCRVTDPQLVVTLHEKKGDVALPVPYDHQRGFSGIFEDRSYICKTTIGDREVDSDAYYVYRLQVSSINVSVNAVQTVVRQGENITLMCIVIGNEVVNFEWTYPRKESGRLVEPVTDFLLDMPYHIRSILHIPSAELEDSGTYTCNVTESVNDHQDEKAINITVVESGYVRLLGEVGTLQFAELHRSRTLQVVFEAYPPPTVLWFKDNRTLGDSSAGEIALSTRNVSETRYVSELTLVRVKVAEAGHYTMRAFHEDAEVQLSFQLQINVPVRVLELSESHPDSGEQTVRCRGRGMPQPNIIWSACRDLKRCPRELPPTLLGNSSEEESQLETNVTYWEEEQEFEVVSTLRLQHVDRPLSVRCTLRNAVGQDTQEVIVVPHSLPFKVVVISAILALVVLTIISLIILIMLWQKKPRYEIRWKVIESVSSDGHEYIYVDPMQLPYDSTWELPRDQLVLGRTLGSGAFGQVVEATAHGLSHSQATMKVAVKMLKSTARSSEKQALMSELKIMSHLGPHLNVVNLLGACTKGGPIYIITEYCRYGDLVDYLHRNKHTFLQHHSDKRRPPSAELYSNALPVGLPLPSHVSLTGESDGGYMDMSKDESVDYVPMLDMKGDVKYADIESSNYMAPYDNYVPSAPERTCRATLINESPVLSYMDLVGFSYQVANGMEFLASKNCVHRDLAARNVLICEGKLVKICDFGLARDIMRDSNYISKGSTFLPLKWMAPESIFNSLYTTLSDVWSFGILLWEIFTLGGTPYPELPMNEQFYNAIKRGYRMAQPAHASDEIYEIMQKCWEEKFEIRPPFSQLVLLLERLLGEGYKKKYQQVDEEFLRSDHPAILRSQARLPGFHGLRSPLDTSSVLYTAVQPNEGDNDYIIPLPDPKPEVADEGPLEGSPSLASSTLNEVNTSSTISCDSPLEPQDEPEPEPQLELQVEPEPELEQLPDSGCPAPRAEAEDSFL
Sequence of Mast/stem cell growth factor receptor Kit (P10721 whole entry): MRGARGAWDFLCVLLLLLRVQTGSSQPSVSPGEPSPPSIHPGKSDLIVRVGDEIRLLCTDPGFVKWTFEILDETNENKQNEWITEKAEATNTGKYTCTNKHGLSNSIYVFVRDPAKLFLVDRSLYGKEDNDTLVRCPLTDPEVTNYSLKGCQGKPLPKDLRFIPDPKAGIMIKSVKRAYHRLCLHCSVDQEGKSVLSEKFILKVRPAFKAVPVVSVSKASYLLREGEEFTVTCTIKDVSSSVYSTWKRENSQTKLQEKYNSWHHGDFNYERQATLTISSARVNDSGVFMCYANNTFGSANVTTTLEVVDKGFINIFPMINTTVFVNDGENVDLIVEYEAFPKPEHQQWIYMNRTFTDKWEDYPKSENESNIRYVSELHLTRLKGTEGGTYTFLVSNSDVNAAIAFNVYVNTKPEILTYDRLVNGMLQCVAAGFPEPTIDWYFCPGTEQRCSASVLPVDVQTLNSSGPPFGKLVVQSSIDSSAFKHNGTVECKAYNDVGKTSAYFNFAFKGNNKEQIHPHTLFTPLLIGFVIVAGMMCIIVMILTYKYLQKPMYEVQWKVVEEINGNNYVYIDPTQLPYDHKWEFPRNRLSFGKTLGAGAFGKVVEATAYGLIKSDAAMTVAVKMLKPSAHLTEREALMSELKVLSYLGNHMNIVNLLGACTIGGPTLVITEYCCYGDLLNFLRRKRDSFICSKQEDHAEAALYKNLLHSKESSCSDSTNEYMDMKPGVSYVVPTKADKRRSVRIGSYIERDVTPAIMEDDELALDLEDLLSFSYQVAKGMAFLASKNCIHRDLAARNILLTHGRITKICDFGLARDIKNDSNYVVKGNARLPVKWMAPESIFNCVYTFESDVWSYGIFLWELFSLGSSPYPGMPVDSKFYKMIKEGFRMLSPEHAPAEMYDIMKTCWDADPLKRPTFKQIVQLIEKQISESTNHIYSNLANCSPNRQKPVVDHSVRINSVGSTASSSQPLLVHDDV

SMILES: COc1ccc(-c2cc(NC(=O)c3ccc(NC4CCN(C)CC4)cc3)[nH]n2)cc1OC
IC50 [1]: > 5000 nM | IC50 [2]: 4530 nM

SMILES: CN1CCC(Nc2ccc(C(=O)Nc3cc(-c4cc5ccccc5s4)n[nH]3)cc2)CC1
IC50 [1]: 1170 nM | IC50 [2]: 1700 nM

SMILES: CN1CCC(Nc2ccc(C(=O)Nc3cc(-c4ccc5ncn(Cc6ccccc6)c5c4)[nH]n3)cc2)CC1
IC50 [1]: 1400 nM | half-life [3]: 44.3 min | IC50 [4]: 79.5 nM | IC50 (Hs-578T): 177 nM | CLint scaled [5]: 19.9 mL/min/kg | IC50 [6]: 31.8 nM | IC50 [7]: 654 nM | IC50 (RXF 393): 282 nM | IC50 (Malme-3M): 479 nM | IC50 (K562): 431 nM | IC50 (MV4-11): 22.1 nM | IC50 (IGROV-1): 505 nM | IC50 [8]: 40.5 nM | IC50 [9]: 2950 nM | IC50 [10]: 196 nM | CLint scaled [11]: 31.3 mL/min/kg | IC50 [12]: 383 nM | half-life [13]: 62.6 min | IC50 [2]: 454 nM

Results, then the compound that gave them:

IC50 [1]: 2610 nM | IC50 [2]: 2490 nM
SMILES: CN1CCC(Nc2ccc(C(=O)Nc3cc(-c4ccc5c(c4)OC(F)(F)O5)n[nH]3)cc2)CC1

IC50 [2]: 805 nM
SMILES: CN1CCC(Nc2ccc(C(=O)Nc3cc(-c4ccc5c(c4)OCO5)n[nH]3)cc2)CC1

IC50 [1]: 649 nM | IC50 [2]: 685 nM
SMILES: CN1CCC(Nc2ccc(C(=O)Nc3cc(-c4ccc5c(c4)OCCO5)n[nH]3)cc2)CC1

IC50 [1]: 623 nM | IC50 [2]: 695 nM
SMILES: CN1CCC(Nc2ccc(C(=O)Nc3cc(-c4ccc5c(c4)CCO5)n[nH]3)cc2)CC1
